From PubChem BioAssay (NCI)
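Cells were grown in 96-well plates and exposed to each compound for 48 hours at five concentrations; endpoints were interpolated linearly between bracketing concentrations, or set to the highest concentration if not reached. The concentration for 50% growth inhibition is given as GI50. TGI marks complete inhibition of growth.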

Assays:
Assay in all cases: growth of human tumour cells (NCI), 48 h
SK-MEL-28 melanoma = tested on: SK-MEL-28 melanoma
RXF 393 renal = tested on: RXF 393 renal
CAKI-1 renal = tested on: CAKI-1 renal
OVCAR-5 ovarian = tested on: OVCAR-5 ovarian
UACC-62 melanoma = tested on: UACC-62 melanoma
TK-10 renal = tested on: TK-10 renal
UACC-257 melanoma = tested on: UACC-257 melanoma
A549 NSCLC = tested on: A549 NSCLC
OVCAR-3 ovarian = tested on: OVCAR-3 ovarian
SK-MEL-2 melanoma = tested on: SK-MEL-2 melanoma
OVCAR-4 ovarian = tested on: OVCAR-4 ovarian
XF 498 CNS = tested on: XF 498 CNS
MOLT-4 leukemia = tested on: MOLT-4 leukemia
NCI-H23 lung = tested on: NCI-H23 lung
HL-60(TB) leukemia = tested on: HL-60(TB) leukemia
HOP-62 NSCLC = tested on: HOP-62 NSCLC
SK-OV-3 ovarian = tested on: SK-OV-3 ovarian
COLO 205 colon = tested on: COLO 205 colon
SNB-78 CNS = tested on: SNB-78 CNS
SN12C renal = tested on: SN12C renal
SNB-75 CNS = tested on: SNB-75 CNS
EKVX NSCLC = tested on: EKVX NSCLC
KM12 colon = tested on: KM12 colon
HT29 colon = tested on: HT29 colon
SNB-19 CNS = tested on: SNB-19 CNS
M14 melanoma = tested on: M14 melanoma
MALME-3M melanoma = tested on: MALME-3M melanoma
OVCAR-8 ovarian = tested on: OVCAR-8 ovarian
ACHN renal = tested on: ACHN renal
M19-MEL melanoma = tested on: M19-MEL melanoma
SF-295 CNS = tested on: SF-295 CNS
SW-620 colon = tested on: SW-620 colon
DMS 114 small cell lung = tested on: DMS 114 small cell lung
SF-268 CNS = tested on: SF-268 CNS
HCC-2998 colon = tested on: HCC-2998 colon
UO-31 renal = tested on: UO-31 renal
K-562 leukemia = tested on: K-562 leukemia
SK-MEL-5 melanoma = tested on: SK-MEL-5 melanoma
NCI-H460 lung = tested on: NCI-H460 lung
SF-539 CNS = tested on: SF-539 CNS
A498 renal = tested on: A498 renal
RPMI-8226 leukemia = tested on: RPMI-8226 leukemia
LOX IMVI melanoma = tested on: LOX IMVI melanoma
CCRF-CEM leukemia = tested on: CCRF-CEM leukemia
U251 CNS = tested on: U251 CNS
786-0 renal = tested on: 786-0 renal
IGROV1 ovarian = tested on: IGROV1 ovarian
LXFL 529 NSCLC = tested on: LXFL 529 NSCLC
HCT-15 colon = tested on: HCT-15 colon
KM20L2 colon = tested on: KM20L2 colon
DMS 273 small cell lung = tested on: DMS 273 small cell lung
HOP-18 NSCLC = tested on: HOP-18 NSCLC
DLD-1 colon = tested on: DLD-1 colon
SR leukemia = tested on: SR leukemia
HOP-92 NSCLC = tested on: HOP-92 NSCLC
NCI-H226 lung = tested on: NCI-H226 lung
NCI-H522 lung = tested on: NCI-H522 lung
HCT-116 colon = tested on: HCT-116 colon

With `[C-]#[O+].[C-]#[O+].[C-]#[O+].[C-]#[O+].[O-]C(c1ccccc1[PH+]1OC(C(F)(F)F)(C(F)(F)F)c2ccccc21)(C(F)(F)F)C(F)(F)F.[Re]` (stereo not given) the GI50 (SK-MEL-28 melanoma) was 2.56 µM, the TGI (SK-MEL-28 melanoma) was 6.8 µM and the GI50 (RXF 393 renal) was 1.9 µM. It also gave a TGI (RXF 393 renal) of 4.04 µM, a GI50 (CAKI-1 renal) of 5.45 µM and a TGI (CAKI-1 renal) of 20.8 µM. The GI50 (OVCAR-5 ovarian) was 5 µM, the TGI (OVCAR-5 ovarian) was 18.6 µM and the GI50 (UACC-62 melanoma) was 2.12 µM. It also gave a TGI (UACC-62 melanoma) of 4.92 µM, a GI50 (TK-10 renal) of 7.26 µM and a TGI (TK-10 renal) of 21.7 µM. The GI50 (UACC-257 melanoma) was 2.26 µM, the TGI (UACC-257 melanoma) was 4.28 µM and the GI50 (A549 NSCLC) was 4.56 µM. The TGI (A549 NSCLC) was 19.2 µM, the GI50 (OVCAR-3 ovarian) was 2.77 µM and the TGI (OVCAR-3 ovarian) was 7.58 µM. The GI50 (SK-MEL-2 melanoma) was 4.88 µM, the TGI (SK-MEL-2 melanoma) was 18.2 µM and the GI50 (OVCAR-4 ovarian) was 2.88 µM. It also gave a TGI (OVCAR-4 ovarian) of 8.53 µM, a GI50 (XF 498 CNS) of 2.96 µM and a TGI (XF 498 CNS) of 10.3 µM. The GI50 (MOLT-4 leukemia) was 2.5 µM, the TGI (MOLT-4 leukemia) was 6.39 µM and the GI50 (NCI-H23 lung) was 2.36 µM. It also gave a TGI (NCI-H23 lung) of 5.25 µM, a GI50 (HL-60(TB) leukemia) of 2.81 µM and a TGI (HL-60(TB) leukemia) of 11.4 µM. The GI50 (HOP-62 NSCLC) was 7.54 µM, the TGI (HOP-62 NSCLC) was 24 µM and the GI50 (SK-OV-3 ovarian) was 14.7 µM. The TGI (SK-OV-3 ovarian) was 30.2 µM, the GI50 (COLO 205 colon) was 2.32 µM and the TGI (COLO 205 colon) was 5.74 µM. The GI50 (SNB-78 CNS) was 3.7 µM, the TGI (SNB-78 CNS) was 19.5 µM and the GI50 (SN12C renal) was 3.63 µM. For the same molecule, the TGI (SN12C renal) was 13.4 µM, the GI50 (SNB-75 CNS) was 4.65 µM and the TGI (SNB-75 CNS) was 15.6 µM. It also gave a GI50 (EKVX NSCLC) of 7.51 µM, a TGI (EKVX NSCLC) of 25.4 µM and a GI50 (KM12 colon) of 3.9 µM. For the same molecule, the TGI (KM12 colon) was 12.5 µM, the GI50 (HT29 colon) was 3.6 µM and the TGI (HT29 colon) was 12.2 µM. For the same molecule, the GI50 (SNB-19 CNS) was 11.5 µM, the TGI (SNB-19 CNS) was 33.5 µM and the GI50 (M14 melanoma) was 1.99 µM. It also gave a TGI (M14 melanoma) of 4.01 µM, a GI50 (MALME-3M melanoma) of 2.33 µM and a TGI (MALME-3M melanoma) of 5.07 µM. For the same molecule, the GI50 (OVCAR-8 ovarian) was 3.65 µM, the TGI (OVCAR-8 ovarian) was 15.6 µM and the GI50 (ACHN renal) was 3.75 µM. For the same molecule, the TGI (ACHN renal) was 12.9 µM, the GI50 (M19-MEL melanoma) was 3.59 µM and the TGI (M19-MEL melanoma) was 14.4 µM. It also gave a GI50 (SF-295 CNS) of 4.97 µM, a TGI (SF-295 CNS) of 18.3 µM and a GI50 (SW-620 colon) of 3.87 µM. It also gave a TGI (SW-620 colon) of 13.5 µM, a GI50 (DMS 114 small cell lung) of 2.78 µM and a TGI (DMS 114 small cell lung) of 8.82 µM. The GI50 (SF-268 CNS) was 6.18 µM, the TGI (SF-268 CNS) was 23.5 µM and the GI50 (HCC-2998 colon) was 5.11 µM. For the same molecule, the TGI (HCC-2998 colon) was 18.3 µM, the GI50 (UO-31 renal) was 2.58 µM and the TGI (UO-31 renal) was 7.02 µM. The GI50 (K-562 leukemia) was 2.69 µM, the TGI (K-562 leukemia) was 11.1 µM and the GI50 (SK-MEL-5 melanoma) was 6.33 µM. It also gave a TGI (SK-MEL-5 melanoma) of 20.6 µM, a GI50 (NCI-H460 lung) of 2.92 µM and a TGI (NCI-H460 lung) of 8.97 µM. It also gave a GI50 (SF-539 CNS) of 2.85 µM, a TGI (SF-539 CNS) of 8.68 µM and a GI50 (A498 renal) of 2.5 µM. The TGI (A498 renal) was 8.19 µM, the GI50 (RPMI-8226 leukemia) was 2.89 µM and the TGI (RPMI-8226 leukemia) was 12.5 µM. For the same molecule, the GI50 (LOX IMVI melanoma) was 2.59 µM, the TGI (LOX IMVI melanoma) was 6.2 µM and the GI50 (CCRF-CEM leukemia) was 2.39 µM. It also gave a TGI (CCRF-CEM leukemia) of 5.83 µM, a GI50 (U251 CNS) of 3.05 µM and a TGI (U251 CNS) of 14.1 µM. The GI50 (786-0 renal) was 4.26 µM, the TGI (786-0 renal) was 15.3 µM and the GI50 (IGROV1 ovarian) was 3.46 µM. For the same molecule, the TGI (IGROV1 ovarian) was 14.8 µM, the GI50 (LXFL 529 NSCLC) was 2.01 µM and the TGI (LXFL 529 NSCLC) was 4.26 µM. For the same molecule, the GI50 (HCT-15 colon) was 5.72 µM, the TGI (HCT-15 colon) was 20.6 µM and the GI50 (KM20L2 colon) was 2.2 µM. It also gave a TGI (KM20L2 colon) of 13.7 µM, a GI50 (DMS 273 small cell lung) of 2.93 µM and a TGI (DMS 273 small cell lung) of 9.78 µM. For the same molecule, the GI50 (HOP-18 NSCLC) was 7.89 µM, the TGI (HOP-18 NSCLC) was 21.1 µM and the GI50 (DLD-1 colon) was 5.1 µM. The TGI (DLD-1 colon) was 21.1 µM.
`C1OC1C1CO1` (stereo not given) showed a TGI (SK-MEL-28 melanoma) greater than 100 µM, a TGI (SR leukemia) greater than 100 µM and a TGI (RXF 393 renal) greater than 100 µM. The TGI (CAKI-1 renal) was greater than 100 µM, the TGI (OVCAR-5 ovarian) was greater than 100 µM and the TGI (HOP-92 NSCLC) was greater than 100 µM. The TGI (UACC-62 melanoma) was greater than 100 µM, the TGI (NCI-H226 lung) was greater than 100 µM and the TGI (TK-10 renal) was greater than 100 µM. For the same molecule, the TGI (UACC-257 melanoma) was greater than 100 µM, the TGI (A549 NSCLC) was greater than 100 µM and the TGI (OVCAR-3 ovarian) was greater than 100 µM. The TGI (SK-MEL-2 melanoma) was greater than 100 µM, the TGI (NCI-H522 lung) was greater than 100 µM and the TGI (HCT-116 colon) was greater than 100 µM. It also gave a TGI (OVCAR-4 ovarian) greater than 100 µM, a TGI (XF 498 CNS) greater than 100 µM and a TGI (MOLT-4 leukemia) greater than 100 µM. The TGI (NCI-H23 lung) was greater than 100 µM, the TGI (HL-60(TB) leukemia) was 64.2 µM and the TGI (HOP-62 NSCLC) was greater than 100 µM. The TGI (SK-OV-3 ovarian) was greater than 100 µM, the TGI (COLO 205 colon) was greater than 100 µM and the TGI (SNB-78 CNS) was greater than 100 µM. The TGI (SN12C renal) was greater than 100 µM, the TGI (SNB-75 CNS) was greater than 100 µM and the TGI (EKVX NSCLC) was greater than 100 µM. It also gave a TGI (KM12 colon) greater than 100 µM, a TGI (HT29 colon) greater than 100 µM and a TGI (SNB-19 CNS) greater than 100 µM. The TGI (M14 melanoma) was greater than 100 µM, the TGI (MALME-3M melanoma) was greater than 100 µM and the TGI (OVCAR-8 ovarian) was greater than 100 µM. The TGI (M19-MEL melanoma) was greater than 100 µM, the TGI (SF-295 CNS) was greater than 100 µM and the TGI (SW-620 colon) was greater than 100 µM. The TGI (DMS 114 small cell lung) was greater than 100 µM, the TGI (SF-268 CNS) was greater than 100 µM and the TGI (HCC-2998 colon) was greater than 100 µM. It also gave a TGI (UO-31 renal) greater than 100 µM, a TGI (K-562 leukemia) greater than 100 µM and a TGI (SK-MEL-5 melanoma) greater than 100 µM. The TGI (SF-539 CNS) was greater than 100 µM, the TGI (RPMI-8226 leukemia) was greater than 100 µM and the TGI (LOX IMVI melanoma) was greater than 100 µM. The TGI (CCRF-CEM leukemia) was greater than 100 µM, the TGI (U251 CNS) was greater than 100 µM and the TGI (786-0 renal) was greater than 100 µM. It also gave a TGI (IGROV1 ovarian) greater than 100 µM, a TGI (HCT-15 colon) greater than 100 µM and a TGI (KM20L2 colon) greater than 100 µM. The TGI (DMS 273 small cell lung) was greater than 100 µM, the TGI (HOP-18 NSCLC) was greater than 100 µM and the TGI (DLD-1 colon) was greater than 100 µM.
